Earlier results, collected in PubChem BioAssay AID1259409 (Chemical Carcinogenesis Research Information System (CCRIS), 2018).

Test system: rodent chemically induced tumor inhibition, incidence and multiplicity
Assay: CCRIS tumor inhibitor studies
Details: Dose [Inhibitor]: 0, Species: MOUSE
From the text: The CCRIS database contains chemical records with carcinogenicity, mutagenicity, tumor promotion, and tumor inhibition test results. It was developed by the National Cancer Institute (NCI). Data are derived from studies cited in primary journals, current awareness tools, NCI reports, and other sources. Test results have been reviewed by experts in carcinogenesis and mutagenesis.
CCRIS provides historical information from the years 1985 - 2011. It is no longer updated.
This is an archive assay for CCRIS tumor inhibitor studies.

Structure (SMILES) | tumour outcome (control, treated, inhibition, significance) (Carcinogen: 7,12-DIMETHYLBENZ[A]ANTHRACENE, 57-97-6, 0.2 ML OF A 1% SOLUTION 1/D FOR 2 WK APPLIED 5 MIN POST EACH CARCINOGEN DOSE THEN 1/D FOR 4 WK DURING PROMOTION STAGE, Route [Inhibitor]: DERMAL, Strain/Sex: SWISS/MALE, Target Tissue: Type of Lesion: SKIN: PAPILLOMA, Dose [Carcinogen]: 0.2 ML OF A 0.24% SOLUTION IN DMSO 1/D FOR 2 WK, Promoter: CROTON OIL, 8001-28-3) | tumour outcome (control, treated, inhibition, significance) (Carcinogen: 7,12-DIMETHYLBENZ[A]ANTHRACENE, 57-97-6, 0.2 ML OF A 1% SOLUTION 1/D FOR 2 WK APPLIED 5 MIN PRIOR TO EACH CARCINOGEN DOSE (STUDY DURATION: 20 WK), Route [Inhibitor]: DERMAL, Strain/Sex: SWISS/MALE, Target Tissue: Type of Lesion: SKIN: PAPILLOMA, Dose [Carcinogen]: 0.2 ML OF A 0.24% SOLUTION IN DMSO 1/D FOR 2 WK, Promoter: CROTON OIL, 8001-28-3) | tumour outcome (control, treated, inhibition, significance) (Carcinogen: AZOXYMETHANE, 25843-45-2, 1% IN DIET FOR DURATION OF STUDY (STUDY DURATION: 48 WK), Route [Inhibitor]: ORAL, Strain/Sex: CF-1/FEMALE, Target Tissue: Type of Lesion: COLON: TUMOR, Dose [Carcinogen]: 10 MG/KG BW 3 TIMES, Promoter: NONE USED) | tumour outcome (control, treated, inhibition, significance) (Carcinogen: AZOXYMETHANE, 25843-45-2, 4% IN DIET FOR DURATION OF STUDY (STUDY DURATION: 48 WK), Route [Inhibitor]: ORAL, Strain/Sex: CF-1/FEMALE, Target Tissue: Type of Lesion: COLON: TUMOR, Dose [Carcinogen]: 10 MG/KG BW 3 TIMES, Promoter: NONE USED) | tumour outcome (control, treated, inhibition, significance) (Carcinogen: BENZO[A]PYRENE, 50-32-8, 4.7 MICROMOLAR/D IN 0.1 ML PEANUT OIL BEGINNING 2 WK PRIOR TO CARCINOGEN TREATMENT AND CONTINUING TO 2 WK POST CARCIN, Route [Inhibitor]: GAVAGE, Strain/Sex: SWISS/FEMALE, Target Tissue: Type of Lesion: FORESTOMACH: TUMOR, Dose [Carcinogen]: 1 MG 2/WK IN 0.1 ML PEANUT OIL FOR 4 WK, Promoter: NONE USED)
C[C@@H]1O[C@@H](OC[C@H]2O[C@@H](Oc3c(-c4ccc(O)c(O)c4)oc4cc(O)cc(O)c4c3=O)[C@H](O)[C@@H](O)[C@@H]2O)[C@H](O)[C@H](O)[C@H]1O | 23/23 (100%), 14/24 (58%), 42%, not calculated | 23/23 (100%), 21/23 (91%), 9%, not calculated | 8/32 (25%), 9/35 (26%), -4%, not significant | 8/32 (25%), 3/31 (10%), 60%, not significant | –
CC1=C(/C=C/C(C)=C/C=C/C(C)=C/C=C/C=C(C)/C=C/C=C(\C)C=O)C(C)(C)CCC1 | – | – | – | – | 20/20 (100%), 5/20 (25%), 75%, p<0.001
